# Data from PMC11589582, “Structural mechanisms of human sodium-coupled high-affinity choline transporter CHT1” (Cell Discovery, 2024).
# Target: T1, sodium-coupled high-affinity choline transporter CHT1 (Homo sapiens, UniProt Q9GZV3)
# T1 construct: gene SLC5A7; Full-length human CHT1 (NP_068587.1) with a C-terminal Strep-tag
# T1 sequence (Q9GZV3 1-580): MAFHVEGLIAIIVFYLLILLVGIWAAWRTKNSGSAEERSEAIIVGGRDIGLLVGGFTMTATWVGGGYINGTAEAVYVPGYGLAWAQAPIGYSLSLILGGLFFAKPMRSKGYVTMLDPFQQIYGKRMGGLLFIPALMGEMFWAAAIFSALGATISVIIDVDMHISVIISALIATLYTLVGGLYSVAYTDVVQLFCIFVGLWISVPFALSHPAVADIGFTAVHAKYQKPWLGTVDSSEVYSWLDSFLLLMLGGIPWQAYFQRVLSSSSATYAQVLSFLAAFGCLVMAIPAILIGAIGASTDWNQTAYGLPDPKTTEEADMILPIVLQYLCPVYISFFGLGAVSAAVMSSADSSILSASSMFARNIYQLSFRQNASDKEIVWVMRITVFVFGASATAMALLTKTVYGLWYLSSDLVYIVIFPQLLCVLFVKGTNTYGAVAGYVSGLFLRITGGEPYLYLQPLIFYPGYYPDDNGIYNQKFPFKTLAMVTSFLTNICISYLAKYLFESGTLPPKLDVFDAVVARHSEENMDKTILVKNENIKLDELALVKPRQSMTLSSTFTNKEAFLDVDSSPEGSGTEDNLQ
# Assay: cryo-EM structure at […] Å; [3H]-choline uptake inhibition in CHT1-expressing HEK293 cells
# Type: cell-based
compound,measurement,value
"C[N+]1(C)CCOC(O)(c2ccc(-c3ccc(C4(O)C[N+](C)(C)CCO4)cc3)cc2)C1 (stereo not shown) [HC3, hemicholinium-3]",IC50,4.98 ± 1.04 nM
